# Laboratory results from ChEMBL document CHEMBL5241120, “Insights into the medicinal chemistry of heterocycles integrated with a pyrazolo[1,5-a]pyrimidine scaffold” (RSC Med Chem, 2022).
# Assays:
# [1] = test system: Bacillus subtilis; experiment: Antibacterial activity against Bacillus subtilis assessed as zone of inhibition; type: functional
# [2] = test system: Escherichia coli; experiment: Antibacterial activity against Escherichia coli assessed as zone of inhibition; type: functional
# [3] = test system: Panel NCI-60 (60 carcinoma cell lines); experiment: Cytotoxicity against human Panel NCI-60 (60 carcinoma cell lines); type: functional; design: concentration or dose not given beside the values
# [4] = test system: HepG2; experiment: Cytotoxicity against human HepG2 cells by MTT assay; type: functional, cell-based
# [5] = test system: MCF7; experiment: Cytotoxicity against human MCF7 cells by MTT assay; type: functional, cell-based
# [6] = test system: HeLa; experiment: Cytotoxicity against human HeLa cells by MTT assay; type: functional, cell-based
# [7] = test system: HCT-116; experiment: Cytotoxicity against human HCT-116 cells by MTT assay; type: functional, cell-based
# [8] = test system: SiHa; experiment: Cytotoxicity against human SiHa cells by MTT assay; type: functional, cell-based
# [9] = test system: Pseudomonas aeruginosa; experiment: Antibacterial activity against Pseudomonas aeruginosa assessed as zone of inhibition; type: functional
# [10] = test system: Staphylococcus aureus; experiment: Antibacterial activity against Staphylococcus aureus assessed as zone of inhibition; type: functional
smiles,measurement,setting,value
Cc1cc(-n2ncc3c(=O)n(-c4ccccc4)cnc32)n2ncc(C#N)c2n1,inhibition zone (IZ),[1],14.3 mm
same,inhibition zone (IZ),[2],13.1 mm
COc1ccc(Nc2nn3c(O)cc(-c4ccccc4)nc3c2C(=O)Nc2ccc(C)cc2)c(OC)c1,Activity,[3],0.5%
COc1ccc(Nc2nn3c(O)cc(-c4ccccc4)nc3c2C(N)=O)c(OC)c1,Activity,[3],0.5%
Cc1ccc(Nc2nn3c(-c4ccc(Br)cc4)ccnc3c2C(N)=O)cc1,IC50,[4],72200 nM
COc1ccc(NC(=O)c2c(Nc3ccc(OC)cc3OC)nn3c(-c4ccccc4)cc(-c4ccccc4)nc23)c(OC)c1,Activity,[3],0.5%
NC(=O)c1c(Nc2ccccc2)nn2c(-c3ccc(Br)cc3)ccnc12,IC50,[5],64000 nM
same,IC50,[4],76200 nM
same,inhibition zone (IZ),[1],9 mm
COc1cc(CNc2ccccc2C(=O)N2CCN(C(=O)c3cc(-c4ccc(C)cc4)n4nc(-c5ccccc5)cc4n3)CC2)cc(OC)c1OC,IC50,[6],1810 nM
COc1cccc2c1C(=O)c1c(O)c3c(c(O)c1C2=O)C[C@@](O)(C(=O)CO)C[C@@H]3O[C@H]1C[C@H](N)[C@H](O)[C@H](C)O1 [DOXORUBICIN],IC50,[7],1.6 µg/mL
same,IC50,[4],80900 nM
COc1cc(-c2cc(C(=O)N3CCN(C(=O)c4ccccc4NCc4ccco4)CC3)nc3cc(-c4ccccc4)nn23)cc(OC)c1OC,IC50,[6],1540 nM
same,IC50,[8],1610 nM
O=C(c1cc(-c2ccccc2)n2nc(-c3ccccc3)cc2n1)N1CCN(C(=O)c2ccccc2NCc2ccco2)CC1,IC50,[8],1930 nM
NC(=O)c1c(Nc2ccc(Br)cc2)nn2c(-c3ccccc3)ccnc12,inhibition zone (IZ),[9],9 mm
same,inhibition zone (IZ),[1],9 mm
same,inhibition zone (IZ),[2],9 mm
CC1=CC(c2ccccc2)n2nc(-c3ccc(C)cc3)cc2N1 (stereo not given),IC50,[5],23.8 µg/mL
same,IC50,[7],22.5 µg/mL
same,IC50,[4],10.3 µg/mL
COc1ccc(-c2cc(C(=O)N3CCN(C(=O)c4ccccc4NCc4cccc5c4OCO5)CC3)nc3cc(-c4ccccc4)nn23)cc1,IC50,[6],1950 nM
NC(=O)c1c(Nc2ccc(Br)cc2)nn2c3c(cnc12)CCCCCC3,inhibition zone (IZ),[9],9 mm
same,inhibition zone (IZ),[1],9 mm
CC1=CC(c2ccccc2)n2nc(C)cc2N1 (stereo not given),IC50,[5],23.5 µg/mL
same,IC50,[7],22.6 µg/mL
same,IC50,[4],24.8 µg/mL
COc1ccc(NC(=O)c2c(Nc3ccc(OC)cc3OC)nn3c(C)cc(C)nc23)c(OC)c1,Activity,[3],0.5%
COc1ccc(Nc2nn3c(O)cc(-c4ccccc4)nc3c2C(=O)Nc2ccccc2)c(OC)c1,Activity,[3],0.5%
O=C(c1cc(-c2ccc([N+](=O)[O-])cc2)n2nc(-c3ccccc3)cc2n1)N1CCN(C(=O)c2ccccc2NCc2cccc3c2OCO3)CC1,IC50,[6],1990 nM
same,IC50,[8],1990 nM
COc1ccc(Nc2nn3c(C)cc(C)nc3c2C(N)=O)c(OC)c1,Activity,[3],0.5%
COc1ccc(Nc2nn3c(O)cc(C)nc3c2C(N)=O)c(OC)c1,Activity,[3],0.5%
COc1ccc(Nc2nn3c(-c4ccccc4)cc(-c4ccccc4)nc3c2C(=O)Nc2ccccc2)c(OC)c1,Activity,[3],0.5%
Cc1ccc(Nc2nn3c(-c4ccc(Cl)cc4)ccnc3c2C(N)=O)cc1,IC50,[4],72200 nM
COC(=O)c1cnc2c(C(=O)Nc3ccccc3)cnn2c1C,inhibition zone (IZ),[10],19 mm
COc1ccc(-c2cc(C(=O)N3CCN(C(=O)c4ccccc4NCc4cccs4)CC3)nc3cc(-c4ccccc4)nn23)cc1OC,IC50,[6],1990 nM
same,IC50,[8],1810 nM
COc1ccc(NC(=O)c2c(Nc3ccc(OC)cc3OC)nn3c(O)cc(C)nc23)c(OC)c1,Activity,[3],0.5%
COc1ccc(-c2cc(C(=O)N3CCN(C(=O)c4ccccc4NCc4ccco4)CC3)nc3cc(-c4ccccc4)nn23)cc1OC,IC50,[6],1560 nM
NC(=O)c1c(Nc2ccccc2)nn2c(-c3ccc(Cl)cc3)ccnc12,IC50,[5],63200 nM
same,inhibition zone (IZ),[9],9 mm
same,IC50,[4],86600 nM
same,inhibition zone (IZ),[1],9 mm
Cc1ccc(-c2nc3c(/N=N/c4cccc(C(F)(F)F)c4)c(N)nn3c(O)c2C#N)cc1,IC50,[5],11.2 µg/mL
same,IC50,[7],12 µg/mL
same,IC50,[4],8.47 µg/mL
NC(=O)c1c(Nc2ccc(Cl)cc2)nn2c(-c3ccccc3)ccnc12,IC50,[4],72200 nM
COc1ccc(Nc2nn3c(-c4cccs4)ccnc3c2C(N)=O)cc1,IC50,[4],72200 nM
Nc1nc2c(/N=N/c3ccc(C(F)(F)F)cc3)c(N)nn2c(N)c1/N=N/c1nccs1,IC50,[4],4.1 µg/mL
CCNc1nn2c(-c3ccc(Br)cc3)ccnc2c1C(N)=O,inhibition zone (IZ),[10],9 mm
COc1ccc(-c2cc(-c3nn4cc(-c5ccncc5)cnc4c3S(=O)(=O)c3ccc([N+](=O)[O-])cc3)on2)cc1,IC50,[8],2100 nM
CC[C@H](CO)Nc1nc(NCc2ccccc2)c2ncn(C(C)C)c2n1 [SELICICLIB],IC50,[6],2200 nM
same,IC50,[8],2690 nM
Nc1nn2c(-c3ccc(S(=O)(=O)c4ccccc4)cc3)ccnc2c1/N=N/c1ccccc1,inhibition zone (IZ),[1],26.5 mm
O=C(Nc1ccccc1-c1ccnc2c(C(=O)NCc3ccc(F)cc3)cnn12)c1c(Cl)cc(Cl)cc1Cl,IC50,[6],8700 nM
O=C(Nc1ccccc1)c1cnn2c(-c3ccc(Cl)cc3)ccnc12,inhibition zone (IZ),[10],17 mm
same,inhibition zone (IZ),[2],10 mm
COc1ccc(NC(=O)c2c(Nc3ccc(OC)cc3OC)nn3c(O)cc(-c4ccccc4)nc23)c(OC)c1,Activity,[3],0.5%
COc1ccc(Nc2nn3c(O)cc(C)nc3c2C(=O)Nc2ccc(C)cc2)c(OC)c1,Activity,[3],0.5%
COc1ccc(Nc2nn3c(C)cc(C)nc3c2C(=O)Nc2ccc(C)cc2)c(OC)c1,Activity,[3],0.5%
NC(=O)c1c(Nc2ccccc2)nn2c(-c3ccc(O)cc3)ccnc12,inhibition zone (IZ),[9],9 mm
same,inhibition zone (IZ),[1],9 mm
same,inhibition zone (IZ),[10],9 mm
same,inhibition zone (IZ),[2],9 mm
NC(=O)c1c(Nc2ccc(Br)cc2)nn2c(-c3ccc(Cl)cc3)ccnc12,inhibition zone (IZ),[10],9 mm
CCOC(=O)c1cnn(-c2cc(C)nc3c(C#N)cnn23)c1N,inhibition zone (IZ),[1],17.1 mm
same,inhibition zone (IZ),[2],15.4 mm
COc1ccc(-c2cc(-c3nn4cc(-c5ccncc5)cnc4c3S(=O)(=O)c3ccc(OC)cc3)on2)cc1,IC50,[8],1770 nM
NC(=O)c1c(Nc2ccc(Br)cc2)nn2c3c(cnc12)CCCC3,inhibition zone (IZ),[9],9 mm
same,inhibition zone (IZ),[1],9 mm
O=C(Nc1ccccc1-c1ccnc2c(C(=O)NCc3ccc(F)cc3)cnn12)c1ccc(Cl)c(Cl)c1,IC50,[6],9600 nM
COc1ccc(Nc2nn3c4c(cnc3c2C(=O)Nc2ccc(Cl)cc2)C(=O)CC(C)(C)C4)cc1,IC50,[4],72200 nM
COc1ccc(-c2ccnc3c(C(=O)Nc4ccccc4)cnn23)cc1,inhibition zone (IZ),[2],10 mm
COc1ccc(Nc2nn3c(-c4ccc(Br)cc4)ccnc3c2C(N)=O)cc1,IC50,[5],65300 nM
same,IC50,[4],70300 nM
NC(=O)c1c(Nc2ccc(Cl)cc2)nn2c(-c3ccc(Cl)cc3)ccnc12,IC50,[4],72200 nM
COc1ccc(Nc2nn3c(N)c(C#N)c(-c4cccc(C)c4)nc3c2C(=O)Nc2ccccc2)cc1,inhibition zone (IZ),[1],20 mm
same,inhibition zone (IZ),[2],16 mm
COc1ccc(-c2ccnc3c(C(N)=O)c(Nc4ccc(Cl)cc4)nn23)cc1,IC50,[4],72200 nM
NC(=O)c1c(Nc2ccccc2)nn2c(-c3ccc(F)cc3)ccnc12,IC50,[4],72200 nM
O=C(c1cc(-c2ccccc2)n2nc(-c3ccccc3)cc2n1)N1CCN(C(=O)c2ccccc2NCc2cccc3c2OCO3)CC1,IC50,[6],1950 nM
COc1cc(-c2cc(C(=O)N3CCN(C(=O)c4ccccc4NCc4cccc5c4OCO5)CC3)nc3cc(-c4ccccc4)nn23)cc(OC)c1OC,IC50,[6],1760 nM
NC(=O)c1c(Nc2ccc(Cl)cc2)nn2c(-c3ccc(Br)cc3)ccnc12,IC50,[4],72200 nM
NC(=O)c1c(Nc2ccc(Br)cc2)nn2c3c(cnc12)CCC3,inhibition zone (IZ),[9],9 mm
same,inhibition zone (IZ),[1],12 mm
same,inhibition zone (IZ),[2],11 mm
NC(=O)c1c(Nc2ccccc2)nn2c3c(cnc12)CCC3,inhibition zone (IZ),[9],9 mm
same,inhibition zone (IZ),[1],9 mm
CCOC(=O)c1cnc2c(C(=O)Nc3ccccc3)cnn2c1C,inhibition zone (IZ),[2],10 mm
CC1(C)CC(=O)c2cnc3c(C(N)=O)c(Nc4ccccc4)nn3c2C1,IC50,[5],66500 nM
same,IC50,[4],77600 nM
COc1ccc(-c2cc(C(=O)N3CCN(C(=O)c4ccccc4NCc4cc(OC)c(OC)c(OC)c4)CC3)nc3cc(-c4ccccc4)nn23)cc1,IC50,[6],1890 nM
CNc1nn2c(-c3ccccc3)ccnc2c1C(N)=O,inhibition zone (IZ),[9],9 mm
same,inhibition zone (IZ),[1],9 mm
COc1ccc(-c2cc(C(=O)N3CCN(C(=O)c4ccccc4NCc4ccco4)CC3)nc3cc(-c4ccccc4)nn23)cc1,IC50,[6],1730 nM
O=C(Nc1ccccc1)c1cnn2c(-c3ccccc3)ccnc12,inhibition zone (IZ),[10],10 mm
same,inhibition zone (IZ),[2],10 mm
COc1cc(CNc2ccccc2C(=O)N2CCN(C(=O)c3cc(-c4cc(OC)c(OC)c(OC)c4)n4nc(-c5ccccc5)cc4n3)CC2)cc(OC)c1OC,IC50,[6],1510 nM
same,IC50,[8],1910 nM
COc1ccc(Nc2nn3c(N)c(C#N)c(-c4cc(OC)ccc4OC)nc3c2C(=O)Nc2ccc(Cl)cc2)cc1,inhibition zone (IZ),[1],21 mm
same,inhibition zone (IZ),[2],16 mm
O=C(Nc1ccccc1)c1cnn2c(-c3ccc([N+](=O)[O-])cc3)ccnc12,inhibition zone (IZ),[2],11 mm
NC(=O)c1c(Nc2ccc(Cl)cc2)nn2c(-c3ccc(F)cc3)ccnc12,IC50,[4],72200 nM
COc1cc(-c2cc(C(=O)N3CCN(C(=O)c4ccccc4NCc4cccs4)CC3)nc3cc(-c4ccccc4)nn23)cc(OC)c1OC,IC50,[6],1460 nM
same,IC50,[8],1560 nM
COc1ccc(-c2cc(-c3nn4cc(-c5ccncc5)cnc4c3S(=O)(=O)c3cc(OC)cc(OC)c3)on2)cc1,IC50,[8],990 nM
NC(=O)c1c(Nc2ccc(Br)cc2)nn2c(-c3ccc(Br)cc3)ccnc12,inhibition zone (IZ),[9],9 mm
same,inhibition zone (IZ),[1],9 mm
same,inhibition zone (IZ),[10],9 mm
same,inhibition zone (IZ),[2],9 mm
COc1ccc(Nc2nn3c(O)cc(C)nc3c2C(=O)Nc2ccccc2)c(OC)c1,Activity,[3],0.5%
COc1ccc(Nc2nn3c(C)cc(C)nc3c2C(=O)Nc2ccccc2)c(OC)c1,Activity,[3],0.5%
COc1ccc(Nc2nn3c(-c4ccccc4)cc(-c4ccccc4)nc3c2C(=O)Nc2ccc(C)cc2)c(OC)c1,Activity,[3],0.5%
O=C(Nc1ccccc1-c1ccnc2c(C(=O)NCc3ccccc3Cl)cnn12)c1ccc(Cl)c(Cl)c1,IC50,[6],9100 nM
